From US10450288B2, “Hydroxy formamide derivatives and their use” (GLAXOSMITHKLINE INTELLECTUAL PROPERTY (NO.2) LIMITED, priority 2014, dated 2019) come the findings set out here.

Assay [1] has as its system human cardiac fibroblasts. Description: Cell-based inhibition assay of mature collagen deposition (immunostaining). As to conditions: Cardiac fibroblast, read-out: pIC50, mature collagen cellular inhibition assay (converted). How it is done:
Cell-Based Inhibition Assay of Generation of Procollagen I C-Terminal Propeptide (PICP) and Mature Collagen:
An adaptation of the collagen deposition assay described by Chen, C. Z. C., et al., British Journal of Pharmacology, 2009, 158, 1196-1209 was used to examine effect of compounds on procollagen I processing and collagen deposition. In the adapted assay, human cardiac fibroblasts were utilized. Processing of procollagen I was determined by a PICP ELISA assay and deposition of mature collagen was determined by immunostaining.
Human cardiac fibroblasts were cultured and maintained until passage 6 in FGM-3 media (Lonza, #CC-3132) in a 37° C. humidified incubator with 5% CO2. They were then seeded in 96-well black wall, clear bottom plates at 10,000 to 15,000 cells per well in eagle's minimum essential media (EMEM, ATCC #30-2003) containing 10% fetal bovine serum (FBS, Life Technologies #10082147), 1% Glutamax (Life Technologies #35050061) and 1% Penicillin and Streptomycin (Life Technologies #15070063). These cultures were placed in 37° C. incubator. The next day, media were removed by aspiration and cells were rinsed with phosphate buffered saline. Crowding media (also called ficoll media) was prepared by adding 112.5 mg/ml of ficoll70 and 75 mg/ml ficoll400 (GE healthcare #17-0310-10 and 17-0300-10, respectively), 100 μM ascorbic acid, 1% Glutamax and 1% Penicillin and Streptomycin to EMEM media. Test compounds (dissolved in DMSO) were diluted into crowding media and then added to the cells. Final concentration of DMSO in crowding media was less than 0.3%. Cells were treated for 24 to 48 hr in a 37° C. incubator. At the end of the treatment period, cell media were collected. The level of PICP in the media were determined by a PICP ELISA assay (Quidel #8003) following the manufacturer's protocol. Potencies of test compounds were calculated by fitting PICP levels, relative to untreated controls, to log (inhibitor) vs. response equation using Graphpad Prism software 5.0 and expressed as pIC50.
For some compounds, deposition of mature collagen was measured by immunostaining in addition to PICP levels. At the end of the treatment period, cells on culture plate were fixed with 100% methanol (prechilled to −20° C.) for 10 min. Then the cells were immunostained with mouse anti-mature collagen I antibody (1:500 dilution, Sigma#C2456), anti-mouse secondary antibody Alexa647 (1:500 dilution, Invitrogen#A21236) and Hoechst (for nuclei, 2 μg/ml, Invitrogen#H3596). Fluorescent image acquisition was done using the Operetta High Content Imaging system (Perkin Elmer). For each image field, the intensity of mature collagen staining was normalized with the number of nuclei. Normalized collagen levels were used to calculate the potency of test compounds with Graphpad Prism software, as described above.

Assay [2] has as its system human cardiac fibroblasts. Description: Cell-based inhibition assay of generation of procollagen I C-terminal propeptide (PICP), PICP ELISA. To be noted: Cardiac fibroblast, read-out: pIC50, PICP cellular inhibition assay (converted). In short, it runs like this: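 Cardiac fibroblasts (passage ≤6) treated 24–48 h at 37 °C with compounds in ficoll crowding medium containing 100 μM ascorbic acid, DMSO <0.3%. PICP secreted into the medium was quantified by ELISA, normalised to untreated controls and fitted to log(inhibitor)–response to give pIC50.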
For orientation: In an ELISA, binding on a coated surface is turned into a signal by an enzyme label.

Where [3] appears, read: human cardiac fibroblasts, crowding media, 24 to 48 hr, collagen I immunostaining normalized to nuclei.
Where [4] appears, read: human cardiac fibroblasts, crowding media, 24 to 48 hr, PICP ELISA of media.

As to `CCCCC[C@@H](C(=O)NCNC(=O)c1ccc(-c2ccc(C(=O)N(CC(=O)O)CC(=O)O)c(OCC)c2)o1)[C@@H](CC)N(O)C=O` [Example 86, 2,2′-((2-ethoxy-4-(5-((((R)-2-((R)-1-(N-hydroxy-formamido)propyl)heptanamido)methyl)carbamoyl)furan-2-yl)benzoyl)azanediyl) diacetic acid], the results for the IC50 in assay [1] (setting [3]) and in assay [2] (setting [4]) were < 1 µM and < 3.98 µM, respectively. `CCCCC[C@H](CN(O)C=O)C(=O)NCNC(=O)c1ccc(-c2ccccc2)o1` [Example 5, (R)-N-((2-((N-hydroxyformamido)methyl)heptanamido)methyl)-5-phenylfuran-2-carboxamide]: the IC50 in assay [1] (Homo sapiens) was < 1 µM; in assay [2] (Homo sapiens) it was < 3.98 µM. Consider `CCCCC[C@@H](C(=O)NCNC(=O)c1ccc(-c2cc(OCC)cc(C(=O)O)c2)o1)[C@@H](CC)N(O)C=O` [Example 39, 3-ethoxy-5-(5-((((R)-2-((R)-1-(N-hydroxyformamido)propyl)heptanamido)methyl)carbamoyl)furan-2-yl)benzoic acid], for which the figures for the IC50 in assay [1] (setting [3]) and in assay [2] (setting [4]) were < 1 µM and < 3.98 µM, respectively. The like results for `CCCCC[C@@H](C(=O)NCNC(=O)c1ccc(-c2ccc(CC(=O)N[C@@H](CC(=O)O)C(=O)O)c(OCC)c2)o1)[C@@H](CC)N(O)C=O` [Example 75, (S)-2-(2-(2-ethoxy-4-(5-((((R)-2-((R)-1-(N-hydroxyformamido)propyl)heptanamido)methyl)carbamoyl)furan-2-yl)phenyl)acetamido) succinic acid] were, in that order, < 1 µM and < 3.98 µM. The like results for `CCCCC[C@@H](C(=O)NCNC(=O)c1ccc(-c2cc(O)c(C(=O)O)c(OCC)c2)o1)[C@@H](CC)N(O)C=O` [Example 128, 2-ethoxy-6-hydroxy-4-(5-((((R)-2-((R)-1-(N-hydroxyformamido)propyl)heptanamido)methyl)carbamoyl)furan-2-yl)benzoic acid] were, in that order, < 1 µM and < 3.98 µM. On the same counts, the results for `CCCCC[C@@H](C(=O)NCNC(=O)c1ccc(-c2cc(OCC)cc(C(=O)N[C@@H](CC(=O)O)C(=O)O)c2)o1)[C@@H](CC)N(O)C=O` [Example 77, (S)-2-(3-ethoxy-5-(5-((((R)-2-((R)-1-(N-hydroxyformamido)propyl)heptanamido)methyl)carbamoyl)furan-2-yl)benzamido) succinic acid] are < 1 µM and < 3.98 µM. Regarding `CCCCC[C@@H](C(=O)NCNC(=O)c1ccc(-c2cc(O)cc(C(=O)O)c2)o1)[C@@H](CC)N(O)C=O` [Example 112, 3-hydroxy-5-(5-((((R)-2((R)-1-(N-hydroxyformamido)propyl)heptanamido)methyl)carbamoyl)furan-2-yl)benzoic acid], the IC50 was < 1 µM in assay [1] (setting [3]) and < 3.98 µM in assay [2] (setting [4]). On the same counts, the results for `CCCCC[C@@H](C(=O)NCNC(=O)c1ccc(-c2ccc(C(=O)N[C@@H](CC(=O)O)C(=O)O)c(OCC)c2)o1)[C@@H](CC)N(O)C=O` [Example 74, (S)-2-(2-ethoxy-4-(5-((((R)-2-((R)-1-(N-hydroxyformamido)propyl)heptanamido)methyl)carbamoyl)furan-2-yl)benzamido)succinic acid] are < 1 µM and < 3.98 µM. On the same counts, the results for `CCOc1cc(C(=O)N(CC(=O)O)CC(=O)O)cc(-c2ccc(C(=O)NCNC(=O)[C@H](CCc3ccc(F)cc3F)[C@@H](CC)N(O)C=O)o2)c1` [Example 122, 2,2′-((3-(5-((((2R,3R)-2-(2,4-difluorophenethyl)-3-(N-hydroxyformamido)pentanamido)methyl)carbamoyl)furan-2-yl)-5-ethoxybenzoyl)azanediyl)diacetic acid] are < 1 µM and < 3.98 µM. On the same counts, the results for `CCCCC[C@@H](C(=O)NCNC(=O)c1ccc(-c2cc(OCC)cc(C(=O)N[C@@H](CC(=O)O)C(=O)OC(C)(C)C)c2)o1)[C@@H](CC)N(O)C=O` [Example 47, (S)-4-(tert-butoxy)-3-(3-ethoxy-5-(5-((((R)-2-((R)-1-(N-hydroxyformamido)propyl)heptanamido)methyl)carbamoyl)furan-2-yl)benzamido)-4-oxobutanoic acid] are < 1 µM and < 3.98 µM. Consider `CCOc1cc(-c2ccc(C(=O)NCNC(=O)[C@H](CCc3ccccc3)[C@@H](CC)N(O)C=O)o2)ccc1C(=O)N(CC(=O)O)CC(=O)O` [Example 124, 2,2′-((2-ethoxy-4-(5-((((2R,3R)-3-(N-hydroxyformamido)-2-phenethylpentanamido)methyl)carbamoyl)furan-2-yl)benzoyl)azanediyl) diacetic acid], for which the IC50 is < 1 µM in assay [1] (setting [3]) and < 3.98 µM in assay [2] (setting [4]). On the same counts, the results for `CCCCC[C@@H](C(=O)NCNC(=O)c1ccc(-c2ccc(C(=O)N[C@@H](CC(=O)O)C(=O)O)c(OCC(=O)O)c2)o1)[C@@H](CC)N(O)C=O` [Example 126, (S)-2-(2-(carboxymethoxy)-4-(5-((((R)-2-((R)-1-(N-hydroxyformamido)propyl)heptanamido)methyl)carbamoyl)furan-2-yl)benzamido) succinic acid] are < 1 µM and < 3.98 µM.

For `CCCCC[C@@H](C(=O)NCNC(=O)c1ccc(-c2cc(OCC)cc(C(=O)NCC(=O)O)c2)o1)[C@@H](CC)N(O)C=O` [Example 85, 2-(3-ethoxy-5-(5-((((R)-2-((R)-1-(N-hydroxy-formamido)propyl)heptanamido)methyl)carbamoyl)furan-2-yl)benzamido) acetic acid], in assay [2] (setting [4]), the IC50 was < 3.98 µM.

For `CCCCC[C@@H](C(=O)NCNC(=O)c1ccc(-c2cc(CN(C)CC(=O)O)cc(OCC)c2)o1)[C@@H](CC)N(O)C=O` [Example 130, 2-((3-ethoxy-5-(5-((((R)-2-((R)-1-(N-hydroxyformamido)propyl)heptanamido)methyl)carbamoyl)furan-2-yl)benzyl)(methyl)amino)acetic acid], the IC50 in assay [2] (setting [4]) was < 3.98 µM. The same measure, in the same setting: the value for `CCCCC[C@H](CN(O)C=O)C(=O)NCNC(=O)c1ccc(-c2cc(OC)cc(C(=O)NCCN)c2)o1` [Example 33, (R)-5-(3-((2-aminoethyl)carbamoyl)-5-methoxyphenyl)-N-((2-((N-hydroxyformamido)methyl)heptanamido)methyl) furan-2-carboxamide] was < 3.98 µM; that for `CCCCC[C@H](CN(O)C=O)C(=O)NCNC(=O)c1ccc(-c2cccc(P(C)(=O)O)c2)o1` [Example 94, (3-(5-((((R)-2-((N-hydroxyformamido)methyl)heptanamido)methyl)carbamoyl)furan-2-yl)phenyl)(methyl)phosphinic acid] was < 3.98 µM.

With `CCCCC[C@@H](C(=O)NCNC(=O)c1ccc(-c2ccc(C(=O)O)c(OCC)c2)o1)[C@@H](CC)N(O)C=O` [Example 1, 2-ethoxy-4-(5-((((R)-2-((R)-1-(N-hydroxyformamido)propyl)heptanamido)methyl)carbamoyl)furan-2-yl)benzoic acid], the IC50 in assay [2] (setting [4]) is < 3.98 µM. On the same count and under the same terms, the value for `CCOc1cc(-c2ccc(C(=O)NCNC(=O)[C@H](CCc3ccc4ccccc4c3)[C@@H](CC)N(O)C=O)o2)cc(P(=O)(O)O)c1` [Example 141] was < 3.98 µM. Take `CCCCC[C@@H](C(=O)NCNC(=O)c1ccc(-c2cc(OCC)cc(C(=O)NCC[N+](C)(C)C)c2)o1)[C@@H](CC)N(O)C=O` [Example 65, 2-(3-ethoxy-5-(5-((((R)-2-((R)-1-(N-hydroxyformamido)propyl)heptanamido)methyl)carbamoyl)furan-2-yl)benzamido)-N,N,N-trimethylethanaminium hydroxide]: in assay [2] (Homo sapiens), the IC50 was < 3.98 µM.

On to `CCCCC[C@H](CN(O)C=O)C(=O)NCNC(=O)c1ccc(-c2cccc(S(=O)(=O)NC)c2)o1` [Example 22, (R)-N-((2-((N-hydroxyformamido)methyl)heptanamido)methyl)-5-(3-(N-methylsulfamoyl)phenyl) furan-2-carboxamide], for which the IC50 in assay [2] (setting [4]) is < 3.98 µM.
